Experimental data from article PMC12851022, “Targeting the Spliceosomal Protein USP39 Through Allosteric Ligands and PROTAC‐Induced Degradation” (Angewandte Chemie (International Ed. in English), 2025).

Assays:
USP39_FL = target: T1, USP39_FL (Homo sapiens, UniProt Q53GS9); test: Thermal shift assay (TSA) with full-length USP39; format: binding
T1 construct: made in house
T1 sequence (Q53GS9 1-565): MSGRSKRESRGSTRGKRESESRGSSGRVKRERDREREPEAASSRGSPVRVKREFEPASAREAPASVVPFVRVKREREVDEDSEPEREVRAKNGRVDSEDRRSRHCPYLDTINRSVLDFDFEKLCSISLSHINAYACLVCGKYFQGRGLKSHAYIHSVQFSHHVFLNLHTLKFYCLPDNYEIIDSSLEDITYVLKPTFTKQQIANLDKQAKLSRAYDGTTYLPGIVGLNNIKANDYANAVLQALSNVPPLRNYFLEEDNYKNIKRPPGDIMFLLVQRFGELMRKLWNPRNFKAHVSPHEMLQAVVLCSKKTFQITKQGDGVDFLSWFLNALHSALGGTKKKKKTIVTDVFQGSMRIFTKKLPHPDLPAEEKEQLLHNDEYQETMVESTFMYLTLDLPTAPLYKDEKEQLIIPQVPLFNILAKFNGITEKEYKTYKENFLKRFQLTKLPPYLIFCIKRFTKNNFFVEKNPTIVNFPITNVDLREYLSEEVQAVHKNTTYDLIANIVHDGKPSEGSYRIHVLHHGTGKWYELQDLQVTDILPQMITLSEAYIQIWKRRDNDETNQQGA
From the text: To identify potential USP39 binders, we purified full‐length USP39 protein (USP39_FL, Figure SI1B) and conducted chemical screening using two complementary strategies. First, an in‐house bioactive collection of approximately 200 small molecules, previously assembled from our studies on cellular reprogramming, was screened using thermal shift assay (TSA, Figure 1a).^[ [2], [23], [24], [25], [26] ^] […] In parallel, a DNA‐encoded library (DEL) screening comprising roughly 600 million unique small molecules was performed. Each DEL compound carries a covalently attached DNA barcode that enables identification after target binding. For this screening, purified USP39_FL protein was immobilized on magnetic beads and incubated with the library; unbound molecules were washed away, and bound DNA‐tagged compounds were eluted. […]
Figure 1 Chemical screening identified thiazole‐containing compounds as USP39 binders. a) AlphaFold3‑predicted structure of full‐length USP39 (USP39_FL) showing three domains: an N‑terminal RS‑like domain (grey), a central zinc‑finger (ZNF) domain (cyan), and a C‑terminal USP domain (gold). […] The ΔT values are therefore given under an empty label, with the protein construct written in front. / Panels b and d: the print is small, so the digits in 55.0, 57.5, -2.5, -2.0 and -1.5 are best readings. […]

USP39-OFP = target: T2, USP39-OFP (Homo sapiens, UniProt P40337+Q53GS9); test: Fluorescence degradation assay in HEK293T cells co-expressing USP39-OFP and VHL_WT-EGFP; format: cell-based; conditions: VHL WT (VHL_WT-EGFP co-expressed)
T2 construct: expressed in transfected cells
Experimental: (§1) Figure 4 Effective and selective degradation of USP39 in cells by USP39‐PROTACs. a) Optimization of cellular degradation assay in HeLa cells transiently overexpressing USP39‑OFP (HeLa‐USP39‐OFP). […] GAPDH was used as a loading control. g) Proteasome dependence of USP39 degradation. HeLa‐WT cells were co‐treated with MG132 (0.25 µM) or DMSO control and USP39_PROTAC_V1 for 24 h ST. h) Representative immunofluorescence images of HeLa‐USP39_OFP cells treated with DMSO (NT), USP39_PROTAC_V1 (10 nM, 24 h), or USP39_PROTAC_V1 + MLN4924 (1 µM), stained for USP39 (red) and nuclei (blue). i) Quantification of USP39 degradation by fluorescence microscopy, showing DC50 values of 13 nM without MLN4924 (orange) and 204 nM with MLN4924 (blue) (MLN4924 = 5 uM). j) VHL‐dependence of PROTAC‐induced degradation. Schematic of PROTAC recruitment to VHL via hydroxyl‐proline interactions (His115, Ser111). Western blot comparing USP39 levels in VHL WT and VHL KO HeLa cells treated with USP39_PROTAC_V1. k) Fluorescence assay in HEK293T cells co‐expressing USP39‑OFP and either VHL_WT‑EGFP or VHL_m (Δ91–121). […] Comparison of untreated (NT) and USP39_PROTAC_V1–treated (10 nM, 24 h) samples. Percent spliced/unspliced (S/U) ratios are shown, reflecting USP39‐deficiency–associated splicing defects. Data represent at least four independent biological replicates. […]

[1] = test system: 5′ splice site usage in exon 1 of ZNF414 and CRK; test: RT-PCR analysis of alternative splicing in ZNF414 and CRK transcripts; format: cell-based, human; conditions: 10 nM, 24 h
Experimental: as §1

T2 sequence (P40337 whole entry, one chain of several): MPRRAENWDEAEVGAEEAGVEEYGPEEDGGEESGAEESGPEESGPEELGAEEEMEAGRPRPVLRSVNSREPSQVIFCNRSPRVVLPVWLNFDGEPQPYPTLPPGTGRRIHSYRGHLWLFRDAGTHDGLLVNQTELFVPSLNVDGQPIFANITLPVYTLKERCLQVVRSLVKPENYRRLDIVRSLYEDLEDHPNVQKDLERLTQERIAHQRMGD
T2 sequence (Q15370 whole entry partner, one chain of several): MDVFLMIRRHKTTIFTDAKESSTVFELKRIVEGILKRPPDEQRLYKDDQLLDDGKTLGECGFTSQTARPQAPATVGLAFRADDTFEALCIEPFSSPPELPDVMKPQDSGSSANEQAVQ
T2 sequence (Q15369 whole entry partner, one chain of several): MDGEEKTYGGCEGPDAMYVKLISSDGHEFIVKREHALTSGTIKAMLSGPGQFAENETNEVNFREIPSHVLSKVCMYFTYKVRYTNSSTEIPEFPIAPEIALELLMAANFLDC

∆T (T max_Compound − T max_USP39), USP39_FL (USP39_FL): comparable to that induced by USP39_B1 | DC50 (USP39-OFP): 1 nM
Structure (SMILES): Cc1ncsc1-c1ccc(CNC(=O)C2CC(O)CN2C(=O)C(NC(=O)CCOCCOCCOCCNC(=O)c2csc(Nc3ccc(Cl)cc3)n2)C(C)(C)C)cc1 (stereo not drawn) [USP39_PROTAC_V1]
Cryptic 5′ splice site usage in ZNF414 and CRK [1]: reproduced these cryptic splicing events
